Results reported in patent US9796733B2, “Imidazo-pyrazine derivatives useful as soluble guanylate cyclase activators” (Merck Sharp & Dohme Corp., priority 2014, dated 2017).

Experiments:
sGC α1/β1 heterodimer = target: T1, sGC α1/β1 heterodimer (Homo sapiens, UniProt Q02108+Q02153); test: Cell-based sGC functional assay (CASA assay): cGMP generation in CHO-K1/sGC cells, HTRF detection; conditions: for Emax: CHO-K1, percent activation relative to standard Compound A in CHO-K1/sGC cells, read-out: % Act.; for EC50: inflection point (IP) of cGMP generation in CHO-K1/sGC cells, 4P fit, activity expressed as percentage of Compound A
T1 construct: expressed in transfected cells; host or cells: CHO-K1 (clone #7, CHO-K1/sGC)
T1 sequence (Q02108 1-690): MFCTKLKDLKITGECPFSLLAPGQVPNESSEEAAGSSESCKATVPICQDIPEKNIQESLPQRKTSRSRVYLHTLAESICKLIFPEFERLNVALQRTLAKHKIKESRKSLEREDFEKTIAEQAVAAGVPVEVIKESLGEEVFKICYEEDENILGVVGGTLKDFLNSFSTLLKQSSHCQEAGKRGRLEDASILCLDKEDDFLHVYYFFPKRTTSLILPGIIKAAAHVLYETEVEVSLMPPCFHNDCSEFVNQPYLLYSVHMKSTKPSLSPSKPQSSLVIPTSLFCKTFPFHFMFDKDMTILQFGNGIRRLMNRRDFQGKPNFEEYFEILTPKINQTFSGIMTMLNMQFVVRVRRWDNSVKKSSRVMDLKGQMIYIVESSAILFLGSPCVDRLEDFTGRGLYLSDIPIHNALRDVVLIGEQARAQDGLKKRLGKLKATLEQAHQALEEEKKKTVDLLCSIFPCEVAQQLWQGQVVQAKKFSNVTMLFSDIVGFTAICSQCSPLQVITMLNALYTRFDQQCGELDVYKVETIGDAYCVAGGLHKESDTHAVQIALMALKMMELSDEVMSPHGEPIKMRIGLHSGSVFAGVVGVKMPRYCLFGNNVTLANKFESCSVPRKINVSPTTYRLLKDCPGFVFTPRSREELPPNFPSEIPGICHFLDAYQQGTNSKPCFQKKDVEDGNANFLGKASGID
T1 sequence (Q02153 1-619): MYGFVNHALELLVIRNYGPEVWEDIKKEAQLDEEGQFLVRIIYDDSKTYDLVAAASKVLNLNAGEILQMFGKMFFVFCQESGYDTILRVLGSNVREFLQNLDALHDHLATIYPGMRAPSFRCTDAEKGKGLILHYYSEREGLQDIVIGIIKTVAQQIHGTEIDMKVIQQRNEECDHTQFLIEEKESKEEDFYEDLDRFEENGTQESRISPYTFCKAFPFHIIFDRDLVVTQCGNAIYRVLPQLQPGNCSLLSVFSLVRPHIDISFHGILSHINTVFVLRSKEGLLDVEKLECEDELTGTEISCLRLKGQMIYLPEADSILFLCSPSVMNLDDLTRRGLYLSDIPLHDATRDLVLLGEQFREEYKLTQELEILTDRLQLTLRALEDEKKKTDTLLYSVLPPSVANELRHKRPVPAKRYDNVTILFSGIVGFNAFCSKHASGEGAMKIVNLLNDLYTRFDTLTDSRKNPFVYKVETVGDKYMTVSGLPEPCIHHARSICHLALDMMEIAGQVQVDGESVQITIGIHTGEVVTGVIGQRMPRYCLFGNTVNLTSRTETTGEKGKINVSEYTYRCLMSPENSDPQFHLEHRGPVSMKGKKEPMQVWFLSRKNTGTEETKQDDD
Outline: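 cGMP was quantified by HTRF after 1 hr, 37° C exposure of thawed CHO-K1 cells expressing sGC α1/β1 to compound, with or without 1 μM DETA-NO. IBMX (0.5 mM) blocked cGMP breakdown, and DMSO was 2.5% final. Percent of standard Compound A's maximal cGMP was fitted (4P) for inflection point.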

[1] = system: Spontaneously hypertensive rats (SHR); test: Acute efficacy in spontaneously hypertensive rats (SHR): telemetry blood pressure lowering after a single oral dose; assay type: in vivo, rat
Outline: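 Values are the maximum peak fall in systolic pressure after one oral dose (mpk), computed hourly against baseline from a vehicle dose given the day before. Rats were conscious, male, spontaneously hypertensive, with femoral-aortic telemetry recording 30 s every 10 min, 14 days post-surgery.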

Row | Emax (sGC α1/β1 heterodimer) | EC50 (sGC α1/β1 heterodimer) | SMILES | Maximum peak decrease of systolic blood pressure (SBP) in SHR, Cat. ([1]; P.O. 3.0 mpk) | Maximum peak decrease of systolic blood pressure (SBP) in SHR, Cat. ([1]; P.O. 1.0 mpk) | Maximum peak decrease of systolic blood pressure (SBP) in SHR, Cat. ([1]; P.O. 0.3 mpk)
1 | 92% | 156 nM | Cc1cnc2c(CCC(F)(F)C(F)(F)F)nc(-c3nc(N)c4c(n3)NC(=O)C4(C)c3ccc(F)cn3)cn12 (stereo not drawn) [Example 173B, 4-amino-5-(5-fluoropyridin-2-yl)-5-methyl-2-(3-methyl-8-(3,3,4,4,4-pentafluorobutyl)imidazo [1,2-a]pyrazin-6-yl)-5H-pyrrolo[2,3-d]pyrimidin-6(7H)-one] |  | B (Category B=SBP in SHRs 20-40 mmHg) | 
2 | 139% | 107 nM | COc1cn2cc(-c3nc(N)c4c(n3)NC(=O)C4(C)c3ccc(F)cc3)nc(CCC(F)(F)C(F)(F)F)c2n1 (stereo not drawn) [Example 174A, 4-amino-5-(4-fluorophenyl)-2-(2-methoxy-8-(3,3,4,4,4-pentafluorobutyl)imidazo [1,2-a]pyrazin-6-yl)-5-methyl-5H-pyrrolo[2,3-d]pyrimidin-6(7H)-one] |  | B (Category B=SBP in SHRs 20-40 mmHg) | 
3 | 88% | 501 nM | COc1cn2cc(-c3nc(N)c4c(n3)NC(=O)C4(C)c3ccc(F)cn3)nc(CCC(F)(F)C(F)(F)F)c2n1 (stereo not drawn) [Example 175B, 4-amino-5-(5-fluoropyridin-2-yl)-2-(2-methoxy-8-(3,3,4,4,4-pentafluorobutyl)imidazo [1,2-a]pyrazin-6-yl)-5-methyl-5H-pyrrolo[2,3-d]pyrimidin-6(7H)-one] |  | A (Category A=SBP in SHRs<20 mmHg) | 
4 | 107% | 79 nM | COc1cn2cc(-c3nc(N)c4c(n3)NC(=O)C4(C)c3ccc(F)cc3)nc(CCCC(F)(F)F)c2n1 (stereo not drawn) [Example 176A, 4-amino-5-(4-fluorophenyl)-2-(2-methoxy-8-(4,4,4-trifluorobutyl)imidazo[1,2-a]pyrazin-6-yl)-5-methyl-5H-pyrrolo[2,3-d]pyrimidin-6(7H)-one] |  | B (Category B=SBP in SHRs 20-40 mmHg) | 
5 | 106% | 17 nM | CC1(c2ccc(Cl)c(F)c2)C(=O)Nc2nc(-c3cn4ccnc4c(CCC(F)(F)F)n3)nc(N)c21 (stereo not drawn) [Example 178B, 4-amino-5-(4-chloro-3-fluorophenyl)-5-methyl-2-(8-(3,3,3-trifluoropropyl)imidazo[1,2-a]pyrazin-6-yl)-5H-pyrrolo[2,3-d]pyrimidin-6(7H)-one] |  |  | B (Category B=SBP in SHRs 20-40 mmHg)
6 | 129% | 45 nM | CC1(c2ccc(Cl)cc2F)C(=O)Nc2nc(-c3cn4ccnc4c(CCC(F)(F)F)n3)nc(N)c21 (stereo not drawn) [Example 179A, 4-amino-5-(4-chloro-2-fluorophenyl)-5-methyl-2-(8-(3,3,3-trifluoropropyl)imidazo[1,2-a]pyrazin-6-yl)-5H-pyrrolo[2,3-d]pyrimidin-6(7H)-one] |  | C (Category C=SBP in SHRs>40 mmHg) | 
7 | 132% | 56 nM | CC1(c2ccc(Br)cc2)C(=O)Nc2nc(-c3cn4ccnc4c(CCC(F)(F)F)n3)nc(N)c21 (stereo not drawn) [Example 181A, 4-amino-5-(4-bromophenyl)-5-methyl-2-(8-(3,3,3-trifluoropropyl)imidazo[1,2-a]pyrazin-6-yl)-5H-pyrrolo[2,3-d]pyrimidin-6(7H)-one] |  | B (Category B=SBP in SHRs 20-40 mmHg) | 
8 | 120% | 55 nM | CC1(c2ccc(Cl)cc2)C(=O)Nc2nc(-c3cn4ccnc4c(CCC(F)(F)F)n3)nc(N)c21 (stereo not drawn) [Example 182A, 4-amino-5-(4-chlorophenyl)-5-methyl-2-(8-(3,3,3-trifluoropropyl)imidazo[1,2-a]pyrazin-6-yl)-5H-pyrrolo[2,3-d]pyrimidin-6(7H)-one] |  | B (Category B=SBP in SHRs 20-40 mmHg) | 
9 | 113% | 61 nM | CC1(c2ccc(F)c(F)c2)C(=O)Nc2nc(-c3cn4ccnc4c(CCC(F)(F)F)n3)nc(N)c21 (stereo not drawn) [Example 183B, 4-amino-5-(3,4-difluorophenyl)-5-methyl-2-(8-(3,3,3-trifluoropropyl)imidazo[1,2-a]pyrazin-6-yl)-5H-pyrrolo[2,3-d]pyrimidin-6(7H)-one] |  | B (Category B=SBP in SHRs 20-40 mmHg) | 

More lines, now with the values behind:

Row | SMILES | Emax (sGC α1/β1 heterodimer) | EC50 (sGC α1/β1 heterodimer) | Maximum peak decrease of systolic blood pressure (SBP) in SHR, Cat. ([1]; P.O. 3.0 mpk) | Maximum peak decrease of systolic blood pressure (SBP) in SHR, Cat. ([1]; P.O. 1.0 mpk) | Maximum peak decrease of systolic blood pressure (SBP) in SHR, Cat. ([1]; P.O. 0.3 mpk)
10 | CC1(c2ccc(F)cc2)C(=O)Nc2nc(-c3cn4cc(C5CC5)nc4c(CCC(F)(F)C(F)(F)F)n3)nc(N)c21 (stereo not drawn) [Example 157A, 4-amino-2-(2-cyclopropyl-8-(3,3,4,4,4-pentafluorobutyl)imidazo [1,2-a]pyrazin-6-yl)-5-(4-fluorophenyl)-5-methyl-5H-pyrrolo[2,3-d]pyrimidin-6(7H)-one] | 90% | 227 nM | B (Category B=SBP in SHRs 20-40 mmHg) |  | 
11 | CCc1cn2cc(-c3nc(N)c4c(n3)NC(=O)C4(C)c3ccc(F)cc3)nc(CCC(F)(F)C(F)(F)F)c2n1 (stereo not drawn) [Example 159A, 4-amino-2-(2-ethyl-8-(3,3,4,4,4-pentafluorobutyl)imidazo [1,2-a]pyrazin-6-yl)-5-(4-fluorophenyl)-5-methyl-5H-pyrrolo[2,3-d]pyrimidin-6(7H)-one] | 103% | 552 nM | A (Category A=SBP in SHRs<20 mmHg) |  | 
12 | CCCCc1nc(-c2nc(N)c3c(n2)NC(=O)C3(C)c2ccc(C(F)(F)F)cn2)cn2cc(C)nc12 (stereo not drawn) [Example 166B, 4-amino-2-(8-butyl-2-methylimidazo[1,2-a]pyrazin-6-yl)-5-methyl-5-(5-(trifluoromethyl)pyridin-2-yl)-5H-pyrrolo[2,3-d]pyrimidin-6(7H)-one] | 94% | 120 nM |  | A (Category A=SBP in SHRs<20 mmHg) | 
13 | CCCCc1nc(-c2nc(N)c3c(n2)NC(=O)C3(C)c2ccc(Cl)cn2)cn2cc(C)nc12 (stereo not drawn) [Example 168A, 4-amino-2-(8-butyl-2-methylimidazo[1,2-a]pyrazin-6-yl)-5-(5-chloropyridin-2-yl)-5-methyl-5H-pyrrolo[2,3-d]pyrimidin-6(7H)-one] | 97% | 150 nM |  | B (Category B=SBP in SHRs 20-40 mmHg) | 
14 | Cc1cn2cc(-c3nc(N)c4c(n3)NC(=O)C4(C)c3ccc(F)cc3)nc(CCC(F)(F)C(F)(F)F)c2n1 (stereo not drawn) [Example 170A, 4-amino-5-(4-fluorophenyl)-5-methyl-2-(2-methyl-8-(3,3,4,4,4-pentafluorobutyl)imidazo [1,2-a]pyrazin-6-yl)-5H-pyrrolo[2,3-d]pyrimidin-6(7H)-one] | 104% | 57 nM |  | B (Category B=SBP in SHRs 20-40 mmHg) | 
15 | Cc1cnc2c(CCC(F)(F)C(F)(F)F)nc(-c3nc(N)c4c(n3)NC(=O)C4(C)c3ccc(F)cc3)cn12 (stereo not drawn) [Example 171A, 4-amino-5-(4-fluorophenyl)-5-methyl-2-(3-methyl-8-(3,3,4,4,4-pentafluorobutyl)imidazo [1,2-a]pyrazin-6-yl)-5H-pyrrolo[2,3-d]pyrimidin-6(7H)-one] | 126% | 80 nM |  | B (Category B=SBP in SHRs 20-40 mmHg) | 
16 | Cc1cn2cc(-c3nc(N)c4c(n3)NC(=O)C4(C)c3ccc(F)cn3)nc(CCC(F)(F)C(F)(F)F)c2n1 (stereo not drawn) [Example 172A, 4-amino-5-(5-fluoropyridin-2-yl)-5-methyl-2-(2-methyl-8-(3,3,4,4,4-pentafluorobutyl)imidazo [1,2-a]pyrazin-6-yl)-5H-pyrrolo[2,3-d]pyrimidin-6(7H)-one] | 124% | 637 nM | B (Category B=SBP in SHRs 20-40 mmHg) |  | 
